Source: the supplement of paper PMC12463676, “Small-molecule dissolution of stress granules by redox modulation benefits ALS models” (Nature Chemical Biology, 2025)

Tests used:
potassium arsenate = compound: O=[As]([O-])(O)O.[K+] [potassium arsenate]; experiment: thermal stability z-score vs DMSO; higher = more thermally stabilized by treatment; conditions: HeLa; arsenate concentration 1 mM
Description: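 Cellular thermal proteome profiling in HeLa cells treated with 1 mM arsenate for 1 h (DMSO pretreatment), heated to ten temperatures (37-66.3 °C). Soluble protein was quantified by TMT mass spectrometry relative to DMSO controls; the thermal stability score was transformed to a z-score; mean of n = 3 experiments.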

lipoamide = compound: NC(=O)CCCCC1CCSS1 [lipoamide]; experiment: as above; conditions: HeLa, lipoamide concentration 100 µM
Description: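 Cellular thermal proteome profiling in HeLa cells. Cells were treated with 100 µM lipoamide for 1 h, with or without 1 mM arsenate for a further 1 h, then heated to ten temperatures (37-66.3 °C), and soluble protein was quantified by TMT mass spectrometry relative to 0.1% DMSO controls. The thermal stability score (sum of log2 fold changes minus the abundance score) was transformed to a z-score; mean of n = 3 experiments.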

[1] = arsenate co-treatment: 1 mM arsenate 1 h
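Also: each temperature applied for 3 min, abundance score taken as mean log2 fold change at the two lowest temperatures, z-score obtained by mean subtraction and division by SD.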

FAM45BP|FAM45A
thermal stability z-score (potassium arsenate): 1.44 | thermal stability z-score (lipoamide; [1]): 0.335 | thermal stability z-score (lipoamide; arsenate co-treatment: none): 1.28

MOCOS (UniProt Q96EN8)
thermal stability z-score (potassium arsenate): -0.535 | thermal stability z-score (lipoamide; [1]): 0.344 | thermal stability z-score (lipoamide; arsenate co-treatment: none): 0.221

C1ORF174 (UniProt Q8IYL3)
thermal stability z-score (potassium arsenate): -0.845 | thermal stability z-score (lipoamide; [1]): -2.39 | thermal stability z-score (lipoamide; arsenate co-treatment: none): -1.46

TRAPPC12 (UniProt Q8WVT3)
thermal stability z-score (potassium arsenate): 0.0727 | thermal stability z-score (lipoamide; [1]): -0.757 | thermal stability z-score (lipoamide; arsenate co-treatment: none): -1.04

KEAP1 (UniProt Q14145)
thermal stability z-score (potassium arsenate): 4.65 | thermal stability z-score (lipoamide; [1]): 2.32 | thermal stability z-score (lipoamide; arsenate co-treatment: none): 2.11

ERGIC3 (UniProt Q9Y282)
Chain of UniProt Q9Y282 (Q9Y282 whole entry): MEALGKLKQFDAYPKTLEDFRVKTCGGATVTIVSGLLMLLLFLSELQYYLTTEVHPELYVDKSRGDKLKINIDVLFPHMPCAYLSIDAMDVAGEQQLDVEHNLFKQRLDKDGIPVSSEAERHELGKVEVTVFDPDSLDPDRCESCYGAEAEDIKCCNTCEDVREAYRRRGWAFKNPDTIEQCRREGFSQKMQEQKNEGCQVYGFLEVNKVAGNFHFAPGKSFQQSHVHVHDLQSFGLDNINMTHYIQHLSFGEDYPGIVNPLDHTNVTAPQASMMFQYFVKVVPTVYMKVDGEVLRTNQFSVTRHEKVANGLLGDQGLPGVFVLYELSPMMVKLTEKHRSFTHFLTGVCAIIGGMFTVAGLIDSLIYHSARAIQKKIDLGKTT
thermal stability z-score (potassium arsenate): -0.464 | thermal stability z-score (lipoamide; [1]): -1.11 | thermal stability z-score (lipoamide; arsenate co-treatment: none): -0.784

GTF2A2 (UniProt P52657)
thermal stability z-score (potassium arsenate): -0.823 | thermal stability z-score (lipoamide; [1]): -0.322 | thermal stability z-score (lipoamide; arsenate co-treatment: none): -0.782

CPSF2 (UniProt Q9P2I0)
thermal stability z-score (potassium arsenate): -0.339 | thermal stability z-score (lipoamide; [1]): -0.00974 | thermal stability z-score (lipoamide; arsenate co-treatment: none): -0.136

WDR75 (UniProt Q8IWA0)
thermal stability z-score (potassium arsenate): 0.152 | thermal stability z-score (lipoamide; [1]): 0.0395 | thermal stability z-score (lipoamide; arsenate co-treatment: none): 0.0658

ECI1 (UniProt P42126)
thermal stability z-score (potassium arsenate): 0.59 | thermal stability z-score (lipoamide; [1]): 0.859 | thermal stability z-score (lipoamide; arsenate co-treatment: none): 0.555

JUNB (UniProt P17275)
thermal stability z-score (potassium arsenate): -1.55 | thermal stability z-score (lipoamide; [1]): 0.208 | thermal stability z-score (lipoamide; arsenate co-treatment: none): 0.791

ZC3H7B (UniProt Q9UGR2)
thermal stability z-score (potassium arsenate): -0.647 | thermal stability z-score (lipoamide; [1]): -0.082 | thermal stability z-score (lipoamide; arsenate co-treatment: none): -0.0985

DIMT1 (UniProt Q9UNQ2)
thermal stability z-score (potassium arsenate): -0.418 | thermal stability z-score (lipoamide; [1]): 0.142 | thermal stability z-score (lipoamide; arsenate co-treatment: none): 0.0753

RPS9 (UniProt P46781)
thermal stability z-score (potassium arsenate): -1.03 | thermal stability z-score (lipoamide; [1]): 0.28 | thermal stability z-score (lipoamide; arsenate co-treatment: none): 0.125

USP39 (UniProt Q53GS9)
thermal stability z-score (potassium arsenate): -0.489 | thermal stability z-score (lipoamide; [1]): -0.384 | thermal stability z-score (lipoamide; arsenate co-treatment: none): -0.174

SMOC1 (UniProt Q9H4F8)
thermal stability z-score (potassium arsenate): -1.55 | thermal stability z-score (lipoamide; [1]): -0.587 | thermal stability z-score (lipoamide; arsenate co-treatment: none): -0.458

WDR53 (UniProt Q7Z5U6)
thermal stability z-score (potassium arsenate): 1.07 | thermal stability z-score (lipoamide; [1]): 0.164 | thermal stability z-score (lipoamide; arsenate co-treatment: none): 0.989

ALG5 (UniProt Q9Y673)
thermal stability z-score (potassium arsenate): 0.347 | thermal stability z-score (lipoamide; [1]): 0.39 | thermal stability z-score (lipoamide; arsenate co-treatment: none): -0.1

BCKDHB (UniProt P21953)
thermal stability z-score (potassium arsenate): 1.11 | thermal stability z-score (lipoamide; [1]): 0.134 | thermal stability z-score (lipoamide; arsenate co-treatment: none): 0.149

FDFT1 (UniProt P37268)
thermal stability z-score (potassium arsenate): 0.108 | thermal stability z-score (lipoamide; [1]): -0.0123 | thermal stability z-score (lipoamide; arsenate co-treatment: none): 0.444

VGLL4 (UniProt Q14135)
thermal stability z-score (potassium arsenate): -1.46 | thermal stability z-score (lipoamide; [1]): -0.0828 | thermal stability z-score (lipoamide; arsenate co-treatment: none): 0.229

EVPL (UniProt Q92817)
thermal stability z-score (potassium arsenate): 0.499 | thermal stability z-score (lipoamide; [1]): 0.263 | thermal stability z-score (lipoamide; arsenate co-treatment: none): 0.134

ADRBK1 (UniProt P25098)
thermal stability z-score (potassium arsenate): 0.052 | thermal stability z-score (lipoamide; [1]): 0.556 | thermal stability z-score (lipoamide; arsenate co-treatment: none): 0.421

MED15 (UniProt Q96RN5)
thermal stability z-score (potassium arsenate): -2.01 | thermal stability z-score (lipoamide; [1]): -0.382 | thermal stability z-score (lipoamide; arsenate co-treatment: none): -0.574

APMAP (UniProt Q9HDC9)
thermal stability z-score (potassium arsenate): 0.179 | thermal stability z-score (lipoamide; [1]): 1.33 | thermal stability z-score (lipoamide; arsenate co-treatment: none): 0.655

RIOK1 (UniProt Q9BRS2)
Chain of UniProt Q9BRS2 (Q9BRS2 whole entry): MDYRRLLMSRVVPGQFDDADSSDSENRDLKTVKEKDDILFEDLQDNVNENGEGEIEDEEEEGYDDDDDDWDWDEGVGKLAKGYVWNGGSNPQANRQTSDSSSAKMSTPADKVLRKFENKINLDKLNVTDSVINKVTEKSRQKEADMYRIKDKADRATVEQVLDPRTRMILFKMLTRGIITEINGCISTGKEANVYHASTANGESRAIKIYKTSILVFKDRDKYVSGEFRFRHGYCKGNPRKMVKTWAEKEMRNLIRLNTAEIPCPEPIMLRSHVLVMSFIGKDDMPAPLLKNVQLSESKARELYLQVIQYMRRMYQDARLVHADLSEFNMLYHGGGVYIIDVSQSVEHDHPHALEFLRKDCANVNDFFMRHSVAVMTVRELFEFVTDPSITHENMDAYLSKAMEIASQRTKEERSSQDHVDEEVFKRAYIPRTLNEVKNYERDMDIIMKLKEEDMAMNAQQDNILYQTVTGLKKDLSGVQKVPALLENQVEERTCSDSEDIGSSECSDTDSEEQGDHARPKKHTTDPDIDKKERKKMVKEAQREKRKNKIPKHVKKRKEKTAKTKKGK
thermal stability z-score (potassium arsenate): -1.27 | thermal stability z-score (lipoamide; [1]): -0.529 | thermal stability z-score (lipoamide; arsenate co-treatment: none): -0.513

VPS36 (UniProt Q86VN1)
thermal stability z-score (potassium arsenate): 0.0802 | thermal stability z-score (lipoamide; [1]): -0.308 | thermal stability z-score (lipoamide; arsenate co-treatment: none): -0.0675

PLS1 (UniProt Q14651)
Chain of UniProt Q14651 (Q14651 whole entry): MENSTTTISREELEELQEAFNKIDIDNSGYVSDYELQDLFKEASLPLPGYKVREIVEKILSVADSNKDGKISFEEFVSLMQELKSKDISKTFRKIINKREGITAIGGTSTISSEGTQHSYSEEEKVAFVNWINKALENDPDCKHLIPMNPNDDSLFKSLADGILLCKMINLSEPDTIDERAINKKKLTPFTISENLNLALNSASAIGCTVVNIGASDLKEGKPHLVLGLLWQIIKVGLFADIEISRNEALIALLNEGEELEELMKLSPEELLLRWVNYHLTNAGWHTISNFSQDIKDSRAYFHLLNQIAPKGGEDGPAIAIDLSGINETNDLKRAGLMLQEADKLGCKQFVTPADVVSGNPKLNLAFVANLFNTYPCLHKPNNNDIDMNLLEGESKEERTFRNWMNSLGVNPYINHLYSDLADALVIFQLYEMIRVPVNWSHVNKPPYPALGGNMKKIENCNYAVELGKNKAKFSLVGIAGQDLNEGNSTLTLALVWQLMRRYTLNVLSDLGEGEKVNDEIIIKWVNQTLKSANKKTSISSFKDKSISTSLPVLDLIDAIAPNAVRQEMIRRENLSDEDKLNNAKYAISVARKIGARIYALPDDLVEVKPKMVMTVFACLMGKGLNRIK
thermal stability z-score (potassium arsenate): -0.0678 | thermal stability z-score (lipoamide; [1]): 0.258 | thermal stability z-score (lipoamide; arsenate co-treatment: none): 0.506

BZW1 (UniProt Q7L1Q6)
thermal stability z-score (potassium arsenate): 0.483 | thermal stability z-score (lipoamide; [1]): 0.452 | thermal stability z-score (lipoamide; arsenate co-treatment: none): 0.578

TMEM33 (UniProt P57088)
Chain of UniProt P57088 (P57088 whole entry): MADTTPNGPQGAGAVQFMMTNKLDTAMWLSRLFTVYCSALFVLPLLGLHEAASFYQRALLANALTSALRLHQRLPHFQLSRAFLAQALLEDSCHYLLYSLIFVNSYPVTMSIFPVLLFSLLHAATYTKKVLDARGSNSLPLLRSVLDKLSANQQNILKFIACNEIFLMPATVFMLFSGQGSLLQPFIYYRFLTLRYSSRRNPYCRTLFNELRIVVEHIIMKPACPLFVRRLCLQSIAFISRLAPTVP
thermal stability z-score (potassium arsenate): 0.972 | thermal stability z-score (lipoamide; [1]): -0.0206 | thermal stability z-score (lipoamide; arsenate co-treatment: none): -1.12

MRPL21 (UniProt Q7Z2W9)
thermal stability z-score (potassium arsenate): 0.0405 | thermal stability z-score (lipoamide; [1]): -0.754 | thermal stability z-score (lipoamide; arsenate co-treatment: none): -0.591

SLC16A1 (UniProt P53985)
Chain of UniProt P53985 (P53985 whole entry): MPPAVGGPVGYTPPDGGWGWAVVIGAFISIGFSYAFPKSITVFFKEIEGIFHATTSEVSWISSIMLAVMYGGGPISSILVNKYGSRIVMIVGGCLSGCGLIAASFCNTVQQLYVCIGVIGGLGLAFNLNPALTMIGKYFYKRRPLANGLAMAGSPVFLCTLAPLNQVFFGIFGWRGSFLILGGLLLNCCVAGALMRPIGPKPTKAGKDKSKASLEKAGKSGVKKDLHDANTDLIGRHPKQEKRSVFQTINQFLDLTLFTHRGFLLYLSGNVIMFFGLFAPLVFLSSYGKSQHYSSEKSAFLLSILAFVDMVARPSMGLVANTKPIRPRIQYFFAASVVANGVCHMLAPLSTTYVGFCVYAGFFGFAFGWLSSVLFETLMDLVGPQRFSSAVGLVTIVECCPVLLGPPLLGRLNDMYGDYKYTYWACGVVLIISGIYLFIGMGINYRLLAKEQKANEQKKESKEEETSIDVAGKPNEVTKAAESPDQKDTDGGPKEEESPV
thermal stability z-score (potassium arsenate): 0.385 | thermal stability z-score (lipoamide; [1]): 0.774 | thermal stability z-score (lipoamide; arsenate co-treatment: none): 1.02

UBA2 (UniProt Q9UBT2)
Chain of UniProt Q9UBT2 (Q9UBT2 whole entry): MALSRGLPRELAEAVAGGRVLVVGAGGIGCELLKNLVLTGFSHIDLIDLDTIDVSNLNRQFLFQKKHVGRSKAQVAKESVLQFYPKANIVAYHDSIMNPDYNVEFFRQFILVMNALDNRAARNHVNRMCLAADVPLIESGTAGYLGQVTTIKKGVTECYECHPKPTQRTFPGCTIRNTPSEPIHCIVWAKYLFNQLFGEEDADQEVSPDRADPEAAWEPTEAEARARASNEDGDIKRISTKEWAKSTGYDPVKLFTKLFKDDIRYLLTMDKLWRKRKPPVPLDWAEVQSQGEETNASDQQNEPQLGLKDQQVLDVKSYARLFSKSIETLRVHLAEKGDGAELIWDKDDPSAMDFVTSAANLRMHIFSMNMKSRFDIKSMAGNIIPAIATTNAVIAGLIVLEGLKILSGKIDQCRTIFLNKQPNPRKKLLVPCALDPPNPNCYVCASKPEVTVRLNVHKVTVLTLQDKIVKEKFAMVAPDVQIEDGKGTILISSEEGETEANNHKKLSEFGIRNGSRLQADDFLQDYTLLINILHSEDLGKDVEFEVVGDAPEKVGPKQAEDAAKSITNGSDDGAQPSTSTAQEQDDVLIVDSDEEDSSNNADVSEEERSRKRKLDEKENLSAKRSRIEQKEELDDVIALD
thermal stability z-score (potassium arsenate): -0.426 | thermal stability z-score (lipoamide; [1]): -0.378 | thermal stability z-score (lipoamide; arsenate co-treatment: none): -0.166

TRIM44 (UniProt Q96DX7)
thermal stability z-score (potassium arsenate): 0.419 | thermal stability z-score (lipoamide; [1]): 0.0927 | thermal stability z-score (lipoamide; arsenate co-treatment: none): -0.409

FUBP3 (UniProt Q96I24)
thermal stability z-score (potassium arsenate): 0.385 | thermal stability z-score (lipoamide; [1]): 0.25 | thermal stability z-score (lipoamide; arsenate co-treatment: none): 0.329

SLC29A1 (UniProt Q99808)
thermal stability z-score (potassium arsenate): 0.277 | thermal stability z-score (lipoamide; [1]): 0.272 | thermal stability z-score (lipoamide; arsenate co-treatment: none): 0.818

TBC1D24 (UniProt Q9ULP9)
thermal stability z-score (potassium arsenate): 0.0941 | thermal stability z-score (lipoamide; [1]): -0.346 | thermal stability z-score (lipoamide; arsenate co-treatment: none): -0.491

QDPR (UniProt P09417)
thermal stability z-score (potassium arsenate): -1.26 | thermal stability z-score (lipoamide; [1]): 0.36 | thermal stability z-score (lipoamide; arsenate co-treatment: none): 0.387

APOBEC3C (UniProt Q9NRW3)
Chain of UniProt Q9NRW3 (Q9NRW3 whole entry): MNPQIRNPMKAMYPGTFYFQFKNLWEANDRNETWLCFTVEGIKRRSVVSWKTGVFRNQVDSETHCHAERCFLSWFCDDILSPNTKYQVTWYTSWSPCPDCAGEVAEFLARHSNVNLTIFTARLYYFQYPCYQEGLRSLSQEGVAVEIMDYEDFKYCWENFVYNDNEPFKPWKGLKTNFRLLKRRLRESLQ
thermal stability z-score (potassium arsenate): -0.53 | thermal stability z-score (lipoamide; [1]): -0.418 | thermal stability z-score (lipoamide; arsenate co-treatment: none): -0.453

VPS41 (UniProt P49754)
thermal stability z-score (potassium arsenate): -0.161 | thermal stability z-score (lipoamide; [1]): -0.0442 | thermal stability z-score (lipoamide; arsenate co-treatment: none): -0.511

MYH14 (UniProt Q7Z406)
thermal stability z-score (potassium arsenate): 0.458 | thermal stability z-score (lipoamide; [1]): 0.363 | thermal stability z-score (lipoamide; arsenate co-treatment: none): 0.126

LAMP2 (UniProt P13473)
thermal stability z-score (potassium arsenate): 0.0434 | thermal stability z-score (lipoamide; [1]): -0.0628 | thermal stability z-score (lipoamide; arsenate co-treatment: none): -0.138

AAMP (UniProt Q13685)
thermal stability z-score (potassium arsenate): 0.924 | thermal stability z-score (lipoamide; [1]): 0.409 | thermal stability z-score (lipoamide; arsenate co-treatment: none): -0.389

RWDD4 (UniProt Q6NW29)
Chain of UniProt Q6NW29 (Q6NW29 whole entry): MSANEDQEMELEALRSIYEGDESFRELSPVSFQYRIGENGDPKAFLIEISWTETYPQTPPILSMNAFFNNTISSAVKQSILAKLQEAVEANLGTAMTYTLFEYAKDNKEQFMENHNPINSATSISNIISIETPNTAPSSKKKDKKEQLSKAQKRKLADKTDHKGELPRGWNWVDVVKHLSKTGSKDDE
thermal stability z-score (potassium arsenate): 0.261 | thermal stability z-score (lipoamide; [1]): -0.526 | thermal stability z-score (lipoamide; arsenate co-treatment: none): -0.0479

HYOU1 (UniProt Q9Y4L1)
thermal stability z-score (potassium arsenate): 0.592 | thermal stability z-score (lipoamide; [1]): -4.47 | thermal stability z-score (lipoamide; arsenate co-treatment: none): -3.4

MRPL14 (UniProt Q6P1L8)
thermal stability z-score (potassium arsenate): 1.59 | thermal stability z-score (lipoamide; [1]): -0.566 | thermal stability z-score (lipoamide; arsenate co-treatment: none): 0.0684

KPNA2 (UniProt P52292)
thermal stability z-score (potassium arsenate): -0.353 | thermal stability z-score (lipoamide; [1]): 0.22 | thermal stability z-score (lipoamide; arsenate co-treatment: none): -0.118

SUPT6H (UniProt Q7KZ85)
thermal stability z-score (potassium arsenate): -1 | thermal stability z-score (lipoamide; [1]): 0.225 | thermal stability z-score (lipoamide; arsenate co-treatment: none): 0.758

HEXB (UniProt P07686)
Chain of UniProt P07686 (P07686 whole entry): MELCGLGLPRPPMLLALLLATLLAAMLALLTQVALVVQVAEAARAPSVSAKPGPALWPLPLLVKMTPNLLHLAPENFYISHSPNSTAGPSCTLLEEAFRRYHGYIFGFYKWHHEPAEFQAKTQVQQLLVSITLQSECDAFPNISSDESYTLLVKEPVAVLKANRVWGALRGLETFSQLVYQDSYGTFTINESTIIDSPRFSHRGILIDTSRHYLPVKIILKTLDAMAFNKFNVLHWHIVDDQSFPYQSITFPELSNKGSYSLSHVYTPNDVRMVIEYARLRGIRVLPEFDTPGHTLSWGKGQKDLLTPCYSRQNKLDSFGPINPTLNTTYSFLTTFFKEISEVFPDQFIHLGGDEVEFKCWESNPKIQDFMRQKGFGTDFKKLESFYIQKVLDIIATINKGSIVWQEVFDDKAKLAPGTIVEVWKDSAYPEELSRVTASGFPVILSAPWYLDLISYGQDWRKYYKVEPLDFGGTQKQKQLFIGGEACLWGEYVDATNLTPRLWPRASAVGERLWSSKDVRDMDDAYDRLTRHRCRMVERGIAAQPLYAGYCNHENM
thermal stability z-score (potassium arsenate): 0.149 | thermal stability z-score (lipoamide; [1]): -0.421 | thermal stability z-score (lipoamide; arsenate co-treatment: none): -0.254

DPAGT1 (UniProt Q9H3H5)
thermal stability z-score (potassium arsenate): -0.109 | thermal stability z-score (lipoamide; [1]): -0.304 | thermal stability z-score (lipoamide; arsenate co-treatment: none): 0.836

PPP6C (UniProt O00743)
Chain of UniProt O00743 (O00743 whole entry): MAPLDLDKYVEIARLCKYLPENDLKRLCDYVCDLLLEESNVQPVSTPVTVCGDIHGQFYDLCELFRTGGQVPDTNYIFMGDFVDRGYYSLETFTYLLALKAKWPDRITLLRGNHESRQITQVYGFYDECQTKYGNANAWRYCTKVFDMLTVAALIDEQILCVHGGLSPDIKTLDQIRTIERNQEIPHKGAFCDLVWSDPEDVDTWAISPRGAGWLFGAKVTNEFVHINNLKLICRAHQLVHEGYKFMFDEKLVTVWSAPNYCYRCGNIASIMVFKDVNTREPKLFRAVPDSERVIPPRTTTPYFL
thermal stability z-score (potassium arsenate): -0.409 | thermal stability z-score (lipoamide; [1]): 0.512 | thermal stability z-score (lipoamide; arsenate co-treatment: none): 0.089

TRADD (UniProt Q15628)
thermal stability z-score (potassium arsenate): -0.497 | thermal stability z-score (lipoamide; [1]): 0.0371 | thermal stability z-score (lipoamide; arsenate co-treatment: none): 0.0442

RBBP5 (UniProt Q15291)
thermal stability z-score (potassium arsenate): -0.769 | thermal stability z-score (lipoamide; [1]): 1.23 | thermal stability z-score (lipoamide; arsenate co-treatment: none): 0.518

ANAPC10 (UniProt Q9UM13)
Chain of UniProt Q9UM13 (Q9UM13 whole entry): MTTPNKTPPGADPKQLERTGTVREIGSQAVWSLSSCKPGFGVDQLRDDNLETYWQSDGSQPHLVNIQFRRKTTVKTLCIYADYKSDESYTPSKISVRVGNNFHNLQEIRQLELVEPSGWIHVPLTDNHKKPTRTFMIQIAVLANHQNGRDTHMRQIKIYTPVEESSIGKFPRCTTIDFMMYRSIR
thermal stability z-score (potassium arsenate): -0.183 | thermal stability z-score (lipoamide; [1]): 0.0276 | thermal stability z-score (lipoamide; arsenate co-treatment: none): -0.149

SLC46A1 (UniProt Q96NT5)
Chain of UniProt Q96NT5 (Q96NT5 whole entry): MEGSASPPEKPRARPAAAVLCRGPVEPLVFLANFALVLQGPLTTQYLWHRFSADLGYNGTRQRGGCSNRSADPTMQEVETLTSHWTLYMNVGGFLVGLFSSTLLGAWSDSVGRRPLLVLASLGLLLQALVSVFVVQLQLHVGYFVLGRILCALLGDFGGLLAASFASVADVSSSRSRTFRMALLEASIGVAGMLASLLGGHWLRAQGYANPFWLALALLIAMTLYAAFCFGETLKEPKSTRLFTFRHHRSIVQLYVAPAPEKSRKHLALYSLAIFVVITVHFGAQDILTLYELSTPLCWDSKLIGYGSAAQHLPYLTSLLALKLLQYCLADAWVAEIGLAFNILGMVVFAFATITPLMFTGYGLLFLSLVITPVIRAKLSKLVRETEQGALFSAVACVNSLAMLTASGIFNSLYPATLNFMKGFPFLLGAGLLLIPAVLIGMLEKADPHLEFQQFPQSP
thermal stability z-score (potassium arsenate): -1.24 | thermal stability z-score (lipoamide; [1]): -0.375 | thermal stability z-score (lipoamide; arsenate co-treatment: none): 0.408
